Assay results: article PMC6591251, “Discovery of potent necroptosis inhibitors targeting RIPK1 kinase activity for the treatment of inflammatory disorder and cancer metastasis” (Cell Death & Disease, 2019)
Converted amounts (≈) assume the structure as drawn.

Assays:
[1] = Solubility in FaSSIF, LC/MS/MS; type: physicochemical; details: for solubility: pH= 6.5 FaSSIF, LC/MS/MS, duplicates
Protocol: ^a Calculated by ACDlabs. ^b Data are measured duplicates in pH= 6.5 FaSSIF using LC/MS/MS. ^c Data are determined three times by SMP10 melting point apparatus.

RIPK3 = target: T1, RIPK3 (Homo sapiens, UniProt Q9Y572); assay: In vitro kinase activity assay (ADP-Glo); type: biochemical; details: even at a 1000 nM concentration
T1 construct: purchased Reaction Biology Corporation
Protocol: Having shown that PK6 and PK68 can inhibit activation of both RIPK1 and RIPK3 during TNF-mediated necroptosis, we sought to determine if PK6 and PK68 can directly target RIPK1 or and RIPK3 by performing in vitro kinase assays. Both PK6 and PK68 were able to block the kinase activities of both human RIPK1 and mouse RIPK1 in vitro (Fig. 4a and Supplementary Fig. 19).
Recombinant proteins were incubated with PK6 and PK68 as indicated. […] NIH3T3-RIPK3 cells were pretreated with indicated compounds for 1 h and subsequently treated with T (40 ng/ml)/S (100 nM)/Z (20 μM) or AP20187 (100 nM) for 24 h. Cell viability was determined by measuring ATP levels. e PK6 and PK68 have no effect on MLKL dimerization-induced cell death in HeLa-MLKL (1–190) cells that stably express MLKL (1–190aa) fused to DmrB. HeLa-MLKL (1–190) cells were pretreated with indicated compounds for 1 h and subsequently treated with AP20187 (100 nM) for 24 h. Cell viability was determined by measuring ATP levels. […]
The recombinant RIPK1 or RIPK3 protein was incubated with DMSO or the indicated compound for 15 min in the assay buffer (25 mM HEPES pH 7.2, 20 mM MgCl2, 12.5 mM MnCl2, 12.5 mM β-glycerol phosphate, 5 mM EGTA, 2 mM EDTA, and 2 mM DTT). […] The luminescence was measured to calculate the kinase activity after the addition of the ADP-Glo Kinase Assay kit following the manufacturer’s instructions (Promega).

[2] = test system: mouse bone marrow-derived macrophages; assay: TLR3- and TLR4-mediated necroptosis (poly(I:C)/z-VAD, LPS/z-VAD); type: cell-based; details: mouse BMDM; PK6 10 μM, PK68 100 nM; 24–30 h
Excerpt: (§1) In addition to TNF-induced necroptosis, it is known that TLR3 or TLR4 activation can also trigger necroptosis. We further evaluated the effects of PK6 and PK68 on TLR3- and TLR4-mediated necroptosis induced by poly(I:C)/z-VAD and LPS/z-VAD, respectively. […] To investigate the molecular mechanism of PK series-mediated necroptosis inhibition, we examined the effects of these compounds on the major steps of necroptotic signaling, including activation of RIPK1, RIPK3, and MLKL. […] It has been shown previously that RIPK3 activation leads to the formation of RIPK3 puncta during necroptosis.
(§2) Fig. 3 PK6 and PK68 block cellular activation of RIPK1, RIPK3, and MLKL upon necroptotic stimuli. a, b Bone marrow-derived macrophages from C57BL/6 mice or rat were pretreated with DMSO, PK6(10 μM), or PK68 (100 nM) for 1 h and subsequently treated with indicated stimuli for 24–30 h. Cell viability was determined by measuring ATP levels. L, LPS (20 ng/ml); P, poly(I:C) (50 μg/ml); S (100 nM); Z (10 μM). […] The distribution of RIPK3 was detected by immunofluorescence. *P < 0.05. **P < 0.01. ***P < 0.001 […]
(§3) The cell viability was analyzed by using the CellTiter-Glo Luminescent Cell Viability Assay kit following the manufacturer’s instructions (Promega). Luminescence was measured with SpectraMax i3x (Molecular Devices).

[3] = test system: rat bone marrow-derived macrophages; assay: TNFR- and TLR-mediated necroptosis; type: cell-based; details: rat BMDM; PK6 10 μM, PK68 100 nM; 24–30 h
Excerpt: as §1, §2, §3

T1 sequence (Q9Y572 whole entry): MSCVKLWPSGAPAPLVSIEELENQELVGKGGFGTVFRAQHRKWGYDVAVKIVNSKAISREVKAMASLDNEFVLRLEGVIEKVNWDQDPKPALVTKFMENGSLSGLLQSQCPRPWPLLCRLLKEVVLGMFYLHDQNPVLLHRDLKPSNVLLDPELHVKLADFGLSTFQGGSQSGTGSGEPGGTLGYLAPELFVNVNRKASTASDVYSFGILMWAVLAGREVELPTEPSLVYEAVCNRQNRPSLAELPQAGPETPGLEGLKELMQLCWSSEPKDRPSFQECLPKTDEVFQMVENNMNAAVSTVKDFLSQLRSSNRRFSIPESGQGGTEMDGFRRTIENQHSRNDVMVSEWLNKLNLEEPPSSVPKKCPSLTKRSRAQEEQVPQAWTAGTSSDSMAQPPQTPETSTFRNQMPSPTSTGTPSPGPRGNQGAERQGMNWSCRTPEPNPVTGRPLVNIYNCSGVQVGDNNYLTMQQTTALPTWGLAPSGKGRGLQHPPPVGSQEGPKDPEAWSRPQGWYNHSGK

Row | SMILES | solubility (in words) [1] | solubility [1] [µg/mL] | RIPK3 kinase activity (RIPK3) | TLR3- and TLR4-mediated necroptosis [2] | TNFR- and TLR-mediated necroptosis [3]
1 | CC(=O)Nc1nc2ccc(-c3cnc(Cl)c(NC(=O)Cc4ccccc4)c3)cc2s1 [PK6, N-(5-(2-acetamidobenzo[d]thiazol-6-yl)-2-chloropyridin-3-yl)-2-phenylacetamide] | poor | 0.09 (≈ 0.206 µM) | neither PK6 nor PK68 affected RIPK3 kinase activity | significantly blocked | showed inhibitory effects
2 | CC(=O)Nc1nc2ccc(-c3cnc(C)c(NC(=O)OC4CCCCC4)c3)cc2s1 [PK68, cyclohexyl (5-(2-acetamidobenzo[d]thiazol-6-yl)-2-methylpyridin-3-yl)carbamate] |  | 0.56 (≈ 1.32 µM) | neither PK6 nor PK68 affected RIPK3 kinase activity | significantly blocked | showed inhibitory effects
